Laboratory results from ChEMBL document CHEMBL1201862, “PubChem BioAssay data set” (2004).
Active and inactive are the calls of the source.

Assays:
[1] = NIH-3T3 fibroblast cytotoxicity, dose response, cytotoxicity control, cell-based, fluorescence, Alamar Blue, secondary assay (AID 2327); format: functional;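 note: NIH-3T3 mouse fibroblasts cultured with fluconazole at 8 µg/mL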
BJ [2] = assay: cells; format: functional, cell-based; conditions: Homo sapiens
BJ [3] = assay: BJ-TERT-LT-ST fibroblast viability loss – cell-based, RAS-independent, luminescence, dose response (AID 1935); format: functional; conditions: Homo sapiens;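 note: BJ fibroblasts immortalized with TERT plus LT and ST oncogenes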
[4] = molecular target: ALK tyrosine kinase receptor (Homo sapiens, UniProt Q9UM73); format: functional;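 note: ALK tested as one member of a kinase panel screen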
[5] = molecular target: Serine/threonine-protein kinase D3 (Homo sapiens, UniProt O94806); format: functional;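 note: determined within a kinase panel screen, with PRKCN as the panel member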
[6] = molecular target: Mitogen-activated protein kinase 8 (Homo sapiens, UniProt P45983); format: functional;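 note: value comes from one member of a kinome-wide kinase profiling panel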
Mitogen-activated protein kinase 8, sequence (P45983 whole entry): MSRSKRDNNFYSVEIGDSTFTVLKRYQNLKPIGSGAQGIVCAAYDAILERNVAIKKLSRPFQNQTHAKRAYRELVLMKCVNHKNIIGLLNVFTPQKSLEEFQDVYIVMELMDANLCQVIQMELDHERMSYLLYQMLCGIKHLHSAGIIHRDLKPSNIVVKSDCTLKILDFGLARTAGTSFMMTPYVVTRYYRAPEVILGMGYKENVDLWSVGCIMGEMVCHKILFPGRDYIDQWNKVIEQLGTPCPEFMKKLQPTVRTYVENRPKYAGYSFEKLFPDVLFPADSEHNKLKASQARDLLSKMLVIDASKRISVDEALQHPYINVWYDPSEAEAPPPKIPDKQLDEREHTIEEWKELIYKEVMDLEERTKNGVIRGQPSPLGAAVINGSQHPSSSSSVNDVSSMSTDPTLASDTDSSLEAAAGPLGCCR

[7] = molecular target: Mast/stem cell growth factor receptor Kit (Homo sapiens, UniProt P10721); format: functional;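 note: KIT entry within a kinase panel assay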
[8] = molecular target: Calcium/calmodulin-dependent protein kinase type II subunit delta (Homo sapiens, UniProt Q13557); format: functional
Calcium/calmodulin-dependent protein kinase type II subunit delta, sequence (Q13557 whole entry, canonical isoform): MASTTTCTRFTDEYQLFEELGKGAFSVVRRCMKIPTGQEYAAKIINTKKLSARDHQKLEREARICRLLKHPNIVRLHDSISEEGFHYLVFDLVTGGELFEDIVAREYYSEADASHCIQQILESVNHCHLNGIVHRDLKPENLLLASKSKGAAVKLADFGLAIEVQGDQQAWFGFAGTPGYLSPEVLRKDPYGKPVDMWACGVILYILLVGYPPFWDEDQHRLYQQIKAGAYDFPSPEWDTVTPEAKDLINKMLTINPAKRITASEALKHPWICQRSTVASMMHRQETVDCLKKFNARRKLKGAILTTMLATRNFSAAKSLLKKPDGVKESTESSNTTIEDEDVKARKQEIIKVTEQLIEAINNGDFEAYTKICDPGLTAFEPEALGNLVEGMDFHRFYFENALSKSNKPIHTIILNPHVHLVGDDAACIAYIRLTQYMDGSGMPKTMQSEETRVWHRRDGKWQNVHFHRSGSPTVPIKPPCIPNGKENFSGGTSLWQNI

[9] = molecular target: Casein kinase I isoform gamma-1 (Homo sapiens, UniProt Q9HCP0); format: functional;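 note: measured as the CSNK1G1 member of a kinome profiling panel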
Casein kinase I isoform gamma-1, sequence (Q9HCP0 whole entry, canonical isoform): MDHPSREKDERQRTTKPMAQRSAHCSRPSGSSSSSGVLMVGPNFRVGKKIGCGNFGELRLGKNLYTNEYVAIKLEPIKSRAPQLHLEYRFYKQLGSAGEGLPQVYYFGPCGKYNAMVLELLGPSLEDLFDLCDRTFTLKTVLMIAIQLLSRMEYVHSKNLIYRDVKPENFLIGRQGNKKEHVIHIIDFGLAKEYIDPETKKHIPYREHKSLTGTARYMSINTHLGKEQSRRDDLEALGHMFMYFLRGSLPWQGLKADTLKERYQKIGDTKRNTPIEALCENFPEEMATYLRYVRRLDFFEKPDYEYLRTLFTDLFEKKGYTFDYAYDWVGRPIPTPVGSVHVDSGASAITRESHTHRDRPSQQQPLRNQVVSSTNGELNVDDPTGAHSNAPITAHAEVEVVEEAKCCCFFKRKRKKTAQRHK

[10] = molecular target: Testis-specific serine/threonine-protein kinase 1 (Homo sapiens, UniProt Q9BXA7); format: functional
Testis-specific serine/threonine-protein kinase 1, sequence (Q9BXA7 whole entry): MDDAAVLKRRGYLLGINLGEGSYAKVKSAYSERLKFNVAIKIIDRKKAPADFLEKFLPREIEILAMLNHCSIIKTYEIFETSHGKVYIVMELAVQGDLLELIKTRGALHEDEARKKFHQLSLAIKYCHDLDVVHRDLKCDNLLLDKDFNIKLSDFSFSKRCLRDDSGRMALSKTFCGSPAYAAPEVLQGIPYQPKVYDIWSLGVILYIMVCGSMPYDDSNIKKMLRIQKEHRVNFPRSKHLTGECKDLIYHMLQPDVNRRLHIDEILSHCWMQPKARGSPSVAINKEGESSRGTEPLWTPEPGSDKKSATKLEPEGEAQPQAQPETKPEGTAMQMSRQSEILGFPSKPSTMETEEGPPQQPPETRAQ

[11] = molecular target: High affinity nerve growth factor receptor (Homo sapiens, UniProt P04629); format: functional;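 note: NTRK1 tested as one member of a kinome-wide profiling panel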
High affinity nerve growth factor receptor, sequence (P04629 whole entry): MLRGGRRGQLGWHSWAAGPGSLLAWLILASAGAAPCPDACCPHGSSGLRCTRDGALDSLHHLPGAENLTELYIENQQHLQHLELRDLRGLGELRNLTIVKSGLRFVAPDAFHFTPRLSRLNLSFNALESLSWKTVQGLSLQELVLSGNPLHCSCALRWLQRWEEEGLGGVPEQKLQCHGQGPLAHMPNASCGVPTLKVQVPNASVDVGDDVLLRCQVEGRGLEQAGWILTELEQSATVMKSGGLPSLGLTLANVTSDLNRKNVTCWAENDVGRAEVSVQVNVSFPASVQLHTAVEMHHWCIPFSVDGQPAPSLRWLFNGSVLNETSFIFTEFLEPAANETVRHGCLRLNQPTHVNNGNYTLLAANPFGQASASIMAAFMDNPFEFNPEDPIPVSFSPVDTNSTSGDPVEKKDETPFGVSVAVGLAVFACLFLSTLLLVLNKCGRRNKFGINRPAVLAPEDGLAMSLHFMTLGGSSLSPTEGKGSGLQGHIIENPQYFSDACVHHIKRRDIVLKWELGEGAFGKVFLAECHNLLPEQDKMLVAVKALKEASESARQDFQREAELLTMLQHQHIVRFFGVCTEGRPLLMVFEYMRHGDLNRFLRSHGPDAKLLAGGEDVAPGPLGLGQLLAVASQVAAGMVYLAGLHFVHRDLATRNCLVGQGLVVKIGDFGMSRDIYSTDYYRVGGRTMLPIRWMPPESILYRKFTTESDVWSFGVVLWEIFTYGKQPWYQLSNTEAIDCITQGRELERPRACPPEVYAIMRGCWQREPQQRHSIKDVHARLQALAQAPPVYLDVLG

Insulin receptor = Insulin receptor (Homo sapiens, UniProt P06213); format: functional;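 note: insulin receptor kinase tested as one member of a kinome-wide kinase panel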
[12] = molecular target: Mitogen-activated protein kinase kinase kinase kinase 2 (Homo sapiens, UniProt Q12851); format: functional;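 note: measured as one member of a kinome-wide kinase panel, with MAP4K2 as the panel entry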
[13] = molecular target: Interleukin-1 receptor-associated kinase 1 (Homo sapiens, UniProt P51617); format: functional;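 note: IRAK1 tested as one member of a kinome panel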
Interleukin-1 receptor-associated kinase 1, sequence (P51617 whole entry): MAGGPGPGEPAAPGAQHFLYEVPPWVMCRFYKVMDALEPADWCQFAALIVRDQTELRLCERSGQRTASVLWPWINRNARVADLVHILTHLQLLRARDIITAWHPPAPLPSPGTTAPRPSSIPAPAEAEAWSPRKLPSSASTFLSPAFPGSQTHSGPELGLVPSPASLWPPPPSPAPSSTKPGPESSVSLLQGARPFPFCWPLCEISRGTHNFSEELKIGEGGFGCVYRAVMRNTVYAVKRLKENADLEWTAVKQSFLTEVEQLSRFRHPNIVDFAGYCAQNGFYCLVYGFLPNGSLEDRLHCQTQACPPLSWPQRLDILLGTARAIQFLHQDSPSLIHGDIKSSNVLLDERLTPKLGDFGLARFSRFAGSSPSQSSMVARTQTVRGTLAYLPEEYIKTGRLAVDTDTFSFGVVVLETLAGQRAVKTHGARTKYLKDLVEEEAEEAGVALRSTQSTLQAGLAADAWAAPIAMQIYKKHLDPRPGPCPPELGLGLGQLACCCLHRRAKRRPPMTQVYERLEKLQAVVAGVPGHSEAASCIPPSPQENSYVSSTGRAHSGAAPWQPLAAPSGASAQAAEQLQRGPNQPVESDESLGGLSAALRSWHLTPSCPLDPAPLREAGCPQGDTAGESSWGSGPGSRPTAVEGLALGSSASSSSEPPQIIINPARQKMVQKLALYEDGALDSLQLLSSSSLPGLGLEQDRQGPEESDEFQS

[14] = molecular target: Cyclin-dependent kinase 1 (Homo sapiens, UniProt P06493); format: functional;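 note: Kinome-wide panel profiling, with the target listed as panel member CDC2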
Cyclin-dependent kinase 1, sequence (P06493 whole entry): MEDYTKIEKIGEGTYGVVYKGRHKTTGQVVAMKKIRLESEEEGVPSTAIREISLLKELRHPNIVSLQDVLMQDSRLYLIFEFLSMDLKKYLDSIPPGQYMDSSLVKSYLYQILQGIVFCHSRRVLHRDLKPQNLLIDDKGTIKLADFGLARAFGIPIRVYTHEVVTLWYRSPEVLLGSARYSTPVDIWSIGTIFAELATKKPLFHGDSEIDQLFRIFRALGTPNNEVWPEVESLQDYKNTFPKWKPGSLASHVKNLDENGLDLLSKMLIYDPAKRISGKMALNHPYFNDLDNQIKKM

[15] = molecular target: Vascular endothelial growth factor receptor 1 (Homo sapiens, UniProt P17948); format: functional;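 note: measured within a kinome-wide profiling panel, FLT1 as the panel member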
Vascular endothelial growth factor receptor 1, sequence (P17948 whole entry): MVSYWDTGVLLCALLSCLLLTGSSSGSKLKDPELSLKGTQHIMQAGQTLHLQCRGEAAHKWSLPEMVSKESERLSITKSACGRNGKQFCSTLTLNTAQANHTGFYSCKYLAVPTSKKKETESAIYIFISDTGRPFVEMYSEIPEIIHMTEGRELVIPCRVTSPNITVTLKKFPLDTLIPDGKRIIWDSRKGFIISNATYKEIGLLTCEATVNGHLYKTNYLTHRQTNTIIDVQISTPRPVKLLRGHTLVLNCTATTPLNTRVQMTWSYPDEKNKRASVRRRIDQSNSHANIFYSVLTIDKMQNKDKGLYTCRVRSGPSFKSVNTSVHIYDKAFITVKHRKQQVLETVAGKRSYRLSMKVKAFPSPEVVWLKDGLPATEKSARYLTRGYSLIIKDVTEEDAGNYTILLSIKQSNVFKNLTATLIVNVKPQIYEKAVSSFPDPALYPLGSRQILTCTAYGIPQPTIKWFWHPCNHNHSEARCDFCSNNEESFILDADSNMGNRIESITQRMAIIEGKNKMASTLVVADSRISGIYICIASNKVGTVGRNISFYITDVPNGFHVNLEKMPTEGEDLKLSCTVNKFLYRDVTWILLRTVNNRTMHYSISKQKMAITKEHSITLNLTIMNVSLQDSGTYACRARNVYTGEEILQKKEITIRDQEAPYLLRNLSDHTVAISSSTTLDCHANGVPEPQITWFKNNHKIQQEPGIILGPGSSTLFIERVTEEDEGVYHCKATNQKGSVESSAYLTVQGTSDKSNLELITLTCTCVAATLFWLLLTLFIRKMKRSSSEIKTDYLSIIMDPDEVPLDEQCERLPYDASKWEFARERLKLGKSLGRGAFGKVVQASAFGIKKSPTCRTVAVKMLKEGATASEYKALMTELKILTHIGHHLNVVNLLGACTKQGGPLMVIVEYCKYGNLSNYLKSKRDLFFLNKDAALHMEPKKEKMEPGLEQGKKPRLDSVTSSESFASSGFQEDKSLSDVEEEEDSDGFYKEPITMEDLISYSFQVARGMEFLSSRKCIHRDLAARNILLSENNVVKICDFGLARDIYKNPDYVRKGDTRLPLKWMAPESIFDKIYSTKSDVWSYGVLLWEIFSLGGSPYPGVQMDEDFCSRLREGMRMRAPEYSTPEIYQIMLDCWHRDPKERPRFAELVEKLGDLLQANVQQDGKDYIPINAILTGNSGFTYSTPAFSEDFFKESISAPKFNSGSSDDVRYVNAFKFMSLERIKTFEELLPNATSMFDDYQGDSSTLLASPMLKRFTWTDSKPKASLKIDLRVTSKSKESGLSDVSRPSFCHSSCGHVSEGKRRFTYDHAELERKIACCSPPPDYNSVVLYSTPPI

[16] = molecular target: Fibroblast growth factor receptor 3 (Homo sapiens, UniProt P22607); format: functional
[17] = molecular target: Mitogen-activated protein kinase kinase kinase kinase 4 (Homo sapiens, UniProt O95819); format: functional

Ki [4]	Ki [5]	Ki [6]	Ki [7]	Ki [8]	Ki [9]	Ki [10]	Ki [11]	Ki (Insulin receptor)	Ki [12]	Ki [13]	Ki [14]	Ki [15]	Ki [16]	Ki [17]	Compound	EC50 [1]	EC50 (BJ [2])	EC50 (BJ [3])
															COc1ccc(-c2nnc(NC(=O)c3ccc(F)cc3)o2)cc1	> 150 µM (inactive)	30.7 µM (active)	> 150 µM (not active)
> 1.26 µM (inactive)	2.51 µM (active)	> 3.16 µM (inactive)	> 1.26 µM (inactive)	> 6.31 µM (inactive)	> 6.31 µM (inactive)	0.0501 µM (active)	> 2.51 µM (inactive)	> 5.01 µM (inactive)	> 6.31 µM (inactive)	> 7.94 µM (inactive)	> 7.94 µM (inactive)	> 0.398 µM (inactive)	> 2 µM (inactive)	> 10 µM (inactive)	CCn1c(-c2nonc2N)nc2cnc(Oc3cccc(NC(=O)c4ccc(OCCN5CCOCC5)cc4)c3)cc21 [GSK-269962A]			
